# Columns and labels:
# Format in all cases: cell-based, human
# [1] = system: RBCs from healthy individuals (AA); assay: Red blood cell deformability by ektacytometry (LORRCA), RBCs from healthy individuals; conditions: 5 mM 2-HPBCD, 1 h at 37° C, RBCs from healthy controls (AA) in PBS
# From the text: Subjects and blood preparation: 17 sickle cell patients (24.1 +/-12.1 years old) and 6 healthy individuals (26 +/−3.9 years old) were included in this study. 12 sickle cell patients were at steady state at the time of inclusion and 5 had vaso-occlusive crisis the day of inclusion. 14 patients were under hydroxyurea therapy. Blood was drawn into EDTA tubes, centrifuged, and plasma and buffy coat were removed and kept until utilization. RBCs were washed in PBS 1X (Phosphate Buffered Saline, 1X Solution) and resuspended at hematocrit 20% either in PBS 1X or in autologous plasma. Then RBCs were incubated for 1 h at 37° C, with 3 or 5 mM 2-HPBCD or vehicle for control condition (Ctrl). […]
# Red blood cell deformability: RBC deformability was assessed at 37° C, at shear stresses ranging from 0.3 to 30 Pa by laser diffraction analysis (ektacytometry), using a Laser-assisted Optical Rotational Cell Analyzer (LORRCA MaxSis, RR Mechatronics. Hoorn. The Netherlands). […] The shear stress-induced deformation of RBCs affected the laser beam's diffraction pattern, which was measured by the LORRCA software, and used to calculate an elongation index. […]
# Statistical analysis: effects of treatments on deformability parameters (EImax and SS1/2) and free hemoglobin concentration were analyzed by using a paired t-test or Wilcoxon test when appropriate. […]
# [2] = system: RBCs from sickle cell disease patients (SS); assay: Red blood cell deformability by ektacytometry (LORRCA), RBCs from sickle cell patients
# From the text: Subjects and blood preparation: 17 sickle cell patients (24.1 +/-12.1 years old) and 6 healthy individuals (26 +/−3.9 years old) were included in this study. 12 sickle cell patients were at steady state at the time of inclusion and 5 had vaso-occlusive crisis the day of inclusion. 14 patients were under hydroxyurea therapy. Blood was drawn into EDTA tubes, centrifuged, and plasma and buffy coat were removed and kept until utilization. RBCs were washed in PBS 1X (Phosphate Buffered Saline, 1X Solution) and resuspended at hematocrit 20% either in PBS 1X or in autologous plasma. Then RBCs were incubated for 1 h at 37° C, with 3 or 5 mM 2-HPBCD or vehicle for control condition (Ctrl). The vehicle for control condition was the PBS IX or plasma respectively, i.e., without addition of the 2-HPBCD.
# Red blood cell deformability: RBC deformability was assessed at 37° C, at shear stresses ranging from 0.3 to 30 Pa by laser diffraction analysis (ektacytometry), using a Laser-assisted Optical Rotational Cell Analyzer (LORRCA MaxSis, RR Mechatronics. Hoorn. The Netherlands). 10 μL of RBC suspensions were mixed with 1 ml polyvinylpyrrolidone (PVP: viscosit≈30 cP) and sheared into a Couette system. A laser beam was directed through the samples. The shear stress-induced deformation of RBCs affected the laser beam's diffraction pattern, which was measured by the LORRCA software, and used to calculate an elongation index. A higher elongation index represents greater RBC deformability. The Lineweaver-Burke method was used to calculate the maximum elongation index at infinite shear stress (EImax) and the shear stress required to reach half of this maximum elongation index (SS1/2).
# Statistical analysis: effects of treatments on deformability parameters (EImax and SS1/2) and free hemoglobin concentration were analyzed by using a paired t-test or Wilcoxon test when appropriate. Comparisons of RBC deformability between healthy individuals and patients were achieved using Student's t-test. A p value<0.05 was considered as significant. Analyses were performed with Graphpad Prism 9 software.
# [3] = system: RBCs from sickle cell disease patients (SS); assay: Free hemoglobin assay (Drabkin's reagent) in supernatants, RBCs from sickle cell patients; conditions: 1 h incubation
# [4] = system: RBCs from healthy individuals (AA); assay: Free hemoglobin assay (Drabkin's reagent) in supernatants, RBCs from healthy individuals; conditions: 5 mM 2-HPBCD, 1 h incubation, RBCs from healthy control individuals (AA) in PBS, FIG. 4
structure (smiles),measurement,setting,value
"CC(O)COC[C@H]1O[C@@H]2O[C@H]3[C@H](O)[C@@H](O)[C@@H](O[C@H]4[C@H](O)[C@@H](O)[C@@H](O[C@H]5[C@H](O)[C@@H](O)[C@@H](O[C@H]6[C@H](O)[C@@H](O)[C@@H](O[C@H]7[C@H](O)[C@@H](O)[C@@H](O[C@H]8[C@H](O)[C@@H](O)[C@@H](O[C@H]1[C@H](O)[C@H]2O)O[C@@H]8COCC(C)O)O[C@@H]7COCC(C)O)O[C@@H]6COCC(C)O)O[C@@H]5COCC(C)O)O[C@@H]4COCC(C)O)O[C@@H]3COCC(C)O (stereo partly drawn) [2-HPBCD, 2-hydroxypropyl-β-cyclodextrin]",effect on SS1/2 (printed SSin),[1]; FIG. 1B,no significant effect
same,change of RBC EImax vs control,"[1]; p<0.05, FIG. 1A",+4.4%
same,effect on deformability of SCD RBCs,[2]; 3 mM or 5 mM 2-HPBCD,increased deformability
same,change of sickle cell RBCs EImax vs control,"[2]; 5 mM 2-HPBCD, 1 h at 37° C, incubated in PBS, p<0.01, FIG. 2A",+12.7%
same,change of sickle cell RBC SS1/2 vs control,"[2]; 5 mM 2-HPBCD, 1 h at 37° C, incubated in PBS, p<0.5 as printed, FIG. 2B",−8.1%
same,effect on SS1/2 in sickle cell RBCs,"[2]; 5 mM 2-HPBCD, 1 h at 37° C, incubated in plasma, FIG. 2D",did not significantly change
same,change of sickle cell RBC EImax vs control,"[2]; 5 mM 2-HPBCD, 1 h at 37° C, incubated in plasma, p<0.01, FIG. 2C",+12.4%
same,effect on free hemoglobin released by RBCs,"[3]; 3 mM 2-HPBCD, RBCs from sickle cell disease patients in PBS, p<0.05, FIG. 6A",significantly decreased
same,change of free hemoglobin released by RBCs vs control,"[3]; 5 mM 2-HPBCD, RBCs from sickle cell anemia patients in PBS, p<0.05, FIG. 5A",−6.4%
same,"change of free hemoglobin released by RBCs vs control, patients with low basal free hemoglobin removed","[3]; 5 mM 2-HPBCD, SS RBCs with high basal free hemoglobin content in PBS, p<0.01, FIG. 5B",−29.9%
same,effect on free hemoglobin release in the supernatant,[4],no significant effect
